Legend:
Assay type in all cases: functional
[1] = tested on: Cancer cell lines; assay: concentration to inhibit 50%cancer cell growth and the value is the mean value which was obtained from 60 cancer cell line assay
[2] = tested on: Cancer cell lines; assay: concentration to inhibit 100%cancer cell growth and the value is the mean value which was obtained from 60 cancer cell line assay; details: read-out: Log TGI (converted)
[3] = tested on: Cancer cell lines; assay: The concentration to cause 50% cancer cell lethality and the value is the mean value which was obtained from 60 cancer cell line assay

| Structure (SMILES) | GI50 [1] | TGI [2] | LC50 [3] |
| --- | --- | --- | --- |
| O=C1C=C(N2CC2)C(=O)c2c1nc1n2CCC1 | > 100 µM | > 100 µM | > 100 µM |
| O=C1C(N2CC2)=CC(=O)c2c1nc1n2CCC1 | 0.363 µM | 1.35 µM | 5.5 µM |
| CC(=O)OC1CCn2c1nc1c2C(=O)C=C(N2CC2)C1=O (configuration not stated) | 0.269 µM | 1.07 µM | 5.25 µM |
| COC1=C(N2CC2)C(=O)c2nc3n(c2C1=O)CCC3 | 0.708 µM | 2.51 µM | 13.5 µM |
| COC1=C(NC(C)=O)C(=O)c2nc3n(c2C1=O)CCC3OC(C)=O (configuration not stated) | 18.6 µM | 38.9 µM | 74.1 µM |
| CC(=O)NC1=C(C)C(=O)c2c(nc3n2CCC3)C1=O | 1.45 µM | 3.72 µM | 10.7 µM |
| CC1=C(N2CC2)C(=O)c2nc3n(c2C1=O)CCC3 | 0.0182 µM | 0.105 µM | 2.04 µM |
| CC(=O)NC1=C(C)C(=O)c2c(nc3n2CCC3OC(C)=O)C1=O (configuration not stated) | 1.58 µM | 4.79 µM | 18.6 µM |
| CC(=O)OC1CCn2c1nc1c2C(=O)C(C)=C(N2CC2)C1=O (configuration not stated) | 0.012 µM | 0.0316 µM | 0.245 µM |

Reference: ChEMBL document CHEMBL1129455, “Chemistry of the pyrrolo[1,2-alpha]benzimidazole antitumor agents: influence of the 7-substituent on the ability to alkylate DNA and inhibit topoisomerase II” (1996)
